For series [1], the system named is focal cerebral ischemia. As to conditions: for Infarct Volume: 1 h post, 24 h post MCAo, mean ± SEM; for Infarct Volume / infarct volume compared with controls (significance) / reduction in infarct volume from control: 48 h. As to the method: Control animals were injected with the vehicle for the test compounds. Survival was maintained for 48 hrs. The cortical infarction sizes were used as endpoints for efficacy evaluation.
Animal Preparation and Middle Cerebral Artery Occlusion. Male, adult, Sprague-Dawley rats (Charles River), weighing 300-400 grams, were used for the study. All animals were acclimated at least for five days before entering the study. Animals were housed in a standard animal facility and fed with commercial rodent chow ad libitum. All animals were anesthetized via intramuscular injection (4 mL/kg) of “cocktail” containing ketamine (25 mg/mL), xylazine (1.3 mg/mL) and acepromazine (0.33 mg/mL). Both carotid arteries were separated with great caution to minimize the vagal nerve stimulation. The right proximal MCA trunk was exposed through a subtemporal craniectomy without transecting the facial nerve. […] Immediately following MCA occlusion, both of the common carotid arteries were occluded for 1 hour using surgical aneurysm micro-clips (ROBOZ INC). Animals were put into temperature regulated recovery chamber for 1 hour before the clips were removed from the common carotid arteries. Body temperature was maintained at 37±0.5° C. during the surgery using a heating blanket connected to a temperature controller.
Compound Administration and Storage. In a blinded random investigation, all animals were injected with the compound(s) or vehicle via S.C. as bolus injection at 2 hours pre, 1 hour post and 24 hours post-MCAo.
Infarct Measurement. Forty-eight hours following MCAo, animals were euthanized with inhalation of CO2. Brains were removed and chilled in ice saline for 10 min. The brains were put in a metal rodent brain slicer. Each rat brain was cut coronally into 7 sections, with each section being 2 mm thick. The brain sections were immersed in 2% TTC solution for 30 min at 37° C. The areas of cerebral infarcts were determined on seven slices, using a computer-interfaced imaging system, Image-Pro® Plus, Version 4.4 for Windows (Media Cybernetics, MD). Infarct areas were then summed among slices and multiplied by slice thickness to give the total infarct volume.
Statistics. All data are expressed as mean±SEM. Infarct volume was analyzed using Student t Test. A p value of ≦0.05 was considered a statistically significant difference. All statistical analyses were performed with the software package JMP version 4.0 (SAS Institute Inc., Cary, N.C.).

Series [2] concerns focal cerebral infarcts (MCAo). The series is described as follows: Forelimb placing test, Tamura MCAo model. As to conditions: AVG, 0=normal, 10=maximally impaired. In kind it is in vivo, rat. An excerpt: Surgical Preparation. Middle Cerebral Artery Occlusion (MCAo), Tamura Model. Focal cerebral infarcts were made by permanent occlusion of the proximal right middle cerebral artery using a modification of the method of Tamura et al. […] The temporalis muscle was bisected and reflected through an incision made midway between the eye and the eardrum canal. The proximal MCA was exposed through a subtemporal craniectomy without removing the zygomatic arch and without transecting the facial nerve. […] Animals were euthanatized at various time periods after MCA occlusion and the brains are removed for histological analysis. Behavioral Analysis. Two behavioral tests were performed, the limb placing and body swing test. […] Limb Placing. The limb placing tests were divided into both forelimb and hindlimb tests. For the forelimb-placing test, the examiner held the rat close to a tabletop and scored the rat's ability to place the forelimb on the tabletop in response to whisker, visual, tactile, or proprioceptive stimulation. Similarly, for the hindlimb placing test, the examiner assessed the rat's ability to place the hindlimb on the tabletop in response to tactile and proprioceptive stimulation. […] Typically, there was a slow and steady recovery of limb placing behavior during the first month after stroke. Experimental Groups and Compound Administration. A total of 80 animals underwent MCAo using subcutaneous administration of all test articles, according to the experimental design illustrated in Table 16. […] All animals were treated with the compound(s)/vehicle(s) as a blinded random investigation. The dose and route of administration is given below in Table 16.

For series [3], the system named is focal cerebral infarcts (MCAo). Nature of the series: Infarct volume measurement (H&E), Tamura MCAo model. As to conditions: day 7. In kind it is in vivo, rat. From the text:
Behavioral assessment as well as infarct volume of compound-treated animals in comparison to control (vehicle) volume animals was used for evaluating compound efficacy over a 7 day period.
Surgical Preparation. Middle Cerebral Artery Occlusion (MCAo), Tamura Model. Focal cerebral infarcts were made by permanent occlusion of the proximal right middle cerebral artery using a modification of the method of Tamura et al. Male Sprague-Dawley rats (300-350 g) were anesthetized with 2% isoflourane in 50% Air/50% O2, and maintained with 1-1.5% isoflourane. The temporalis muscle was bisected and reflected through an incision made midway between the eye and the eardrum canal. The proximal MCA was exposed through a subtemporal craniectomy without removing the zygomatic arch and without transecting the facial nerve. […] Body temperature was maintained at 38° C.±1 throughout the entire procedure. Animals were euthanatized at various time periods after MCA occlusion and the brains are removed for histological analysis.
Morphometric Analysis—Brain Perfusion. Seven days after the induction of focal ischemia, rats were deeply anesthetized with a ketamine, and xylazine cocktail. The animals were then perfused transcardially with normal saline (with heparin 2 unit/ml) followed by 4% paraformaldehyde for infarct volume measurement (H&E staining). Brains were removed and stored in 10% formalin to be sectioned and stained with Hematoxylin and Eosin.
Infarct Volume Measurement. Using the Image Pro-Plus imaging system, a total of 7 images per brain of the posterior side of each slice were analyzed through digital analysis. The total direct infarct volume was calculated for the left hemisphere using the equation below. Digitizing and computation was done under blinded conditions.
The total infarct volumes are calculated for each animal and subsequent group means were determined as volume of area (mm^3). To account for tissue shrinkage and possible edema the indirect method of infarct volume was calculated using the formula: Total Contralateral Hemisphere Volume−Total Infarcted Hemisphere Volume (mm^3)
Experimental Groups and Compound Administration. A total of 80 animals underwent MCAo using subcutaneous administration of all test articles, according to the experimental design illustrated in Table 16. […] The time schedules for administration of all treated groups (10 animals/group) was divided as follows:
All animals were treated with the compound(s)/vehicle(s) as a blinded random investigation. The dose and route of administration is given below in Table 16. Forty animals used in the first group of the study (group a.) Cerebral blood flow measurement was performed according to the protocol previously discussed on days 0, 1 and 5 with respect to MCAo.

[4] abbreviates: administered six hours after MCAo.
The mark [5] stands for this setting: administered three hours after MCAo.
Where [6] appears, read: administered six hours after MCAo, listed as B.
[7] abbreviates: administered three hours after MCAo, listed as B.
Where [8] appears, read: administered six hours after MCAo, listed as A.
The mark [9] stands for this setting: administered three hours after MCAo, listed as A.
Setting [10] is: administered six hours after MCAo, listed as C.
The mark [11] stands for this setting: administered three hours after MCAo, listed as C.

Several values for one entry are separate records, joined by “and”; a condition that tells them apart may be missing. Equal values may be shown once. Read-outs that look alike come from different tables or passages of the source.

From patent US7323490B2, “Pyrrole compounds and uses thereof” (Ambit Biosciences Corporation, priority 2003, dated 2008) come the findings set out here.

Regarding `CC(C)c1[nH]c(-c2ccc(F)cc2)c(-c2ccccc2)c1C(=O)Nc1ccccc1` [Compound 781430], the “Infarct Volume” value in series [1] (1 mg/kg SC at 2 h pre) turned out to be 152.83 ± 13.78 mm^3. Also, the “infarct volume compared with controls (significance)” value in series [1] (1 mg/kg SC) was “not significantly different from controls”. For the same compound, the “Infarct Volume” value in series [1] (10 mg/kg SC at 2 h pre, listed as B) is 65.99±25.01 mm^3. Further, in series [1] (10 mg/kg SC), the “reduction in infarct volume from control” value stood at 57%. In addition, in series [2] (setting [4]), the “Forelimb placing test score, D0” value amounted to 0; the “Forelimb placing test score, D1” value came out at 8.9; the “Forelimb placing test score, D3” value is on record as 8.5; the “Forelimb placing test score, D7” value is 6. In series [2] (setting [5]), the “Forelimb placing test score, D0” value was 0; the “Forelimb placing test score, D1” value was 8.9; the “Forelimb placing test score, D3” value was determined as 7.6; the “Forelimb placing test score, D7” value was 4.3. In series [3] (setting [4]), the “Corrected Infarct Volume, Average” value was 283.4 mm^3 and the “Percent Infarct Volume, Average” value is 26.92%. Besides, in series [3] (setting [6]), the “Corrected Infarct Volume, individual animals” value was 375.7 mm^3 and 204.5 mm^3 and 353.2 mm^3 and 262.2 mm^3 and 196.6 mm^3 and 352.4 mm^3 and 289.9 mm^3 and 195.4 mm^3 and 327.7 mm^3 and 276.5 mm^3; the “Percent Infarct Volume, individual animals” value was 31.4% and 21.7% and 26.2% and 33.9% and 15.6% and 29.1% and 28.8% and 25.4% and 35.3% and 21.8%. Besides, in series [3] (setting [5]), the “Corrected Infarct Volume, Average” value is given as 213.77 mm^3 and the “Percent Infarct Volume, Average” value came out at 22.29%. Moreover, in series [3] (setting [7]), the “Corrected Infarct Volume, individual animals” value was 200.1 mm^3 and 231.7 mm^3 and 217.7 mm^3 and 173 mm^3 and 180.5 mm^3 and 224.1 mm^3 and 208.1 mm^3 and 233.4 mm^3 and 255.3 mm^3; the “Percent Infarct Volume, individual animals” value was 19.74% and 21.5679% and 24.3% and 20.62% and 19.71% and 23.99% and 22.56% and 24.24% and 23.9%.
`CC(C)c1c(C(=O)Nc2ccccc2)c(-c2ccccc2)c(-c2ccc(F)cc2)n1CC(O)C(O)C(O)C(O)CO` (stereo not drawn) [Compound 782236]: the “Infarct Volume” value in series [1] (1 mg/kg SC at 2 h pre, listed as A) stood at 71.32±36.98 mm^3. Further, the “reduction in infarct volume from control” value in series [1] (1 mg/kg SC) came out at 53%. In series [1] (10 mg/kg SC), the “animals died within the 24-hour period after the second injection” value is listed as “Three” and the mortality rate was 60%. For the same compound, in series [2] (setting [4]), the “Forelimb placing test score, D0” value is listed as 0; the “Forelimb placing test score, D1” value was 9.2; the “Forelimb placing test score, D3” value is 8.9; the “Forelimb placing test score, D7” value was 7. In series [2] (setting [5]), the “Forelimb placing test score, D0” value is on record as 0; the “Forelimb placing test score, D1” value is recorded as 8.4; the “Forelimb placing test score, D3” value turned out to be 6.7; the “Forelimb placing test score, D7” value turned out to be 5.9. For the same compound, in series [3] (setting [4]), the “Corrected Infarct Volume, Average” value is 239.27 mm^3 and the “Percent Infarct Volume, Average” value is on record as 26.69%. Moreover, in series [3] (setting [8]), the “Corrected Infarct Volume, individual animals” value was 227.2 mm^3 and 166.6 mm^3 and 234.6 mm^3 and 269.8 mm^3 and 249 mm^3 and 215.8 mm^3 and 229 mm^3 and 213.3 mm^3 and 271.4 mm^3 and 316 mm^3; the “Percent Infarct Volume, individual animals” value was 25.6% and 31.5% and 24.6% and 28.8% and 28.1% and 28.9% and 24.8% and 23.5% and 25.3% and 25.8%. Moreover, in series [3] (setting [5]), the “Corrected Infarct Volume, Average” value was 212.59 mm^3 and the “Percent Infarct Volume, Average” value came to 23.53%. Moreover, in series [3] (setting [9]), the “Corrected Infarct Volume, individual animals” value is 210.9 mm^3 and 272.5 mm^3 and 275.6 mm^3 and 163.8 mm^3 and 249 mm^3 and 229.2 mm^3 and 127.9 mm^3 and 222.3 mm^3 and 235 mm^3 and 139.8 mm^3; the “Percent Infarct Volume, individual animals” value was 25.1% and 29% and 23.7% and 15.8% and 28.1% and 25.9% and 15.9% and 27.5% and 25.4% and 18.9%.
For the compound `CC(C)c1c(C(=O)Nc2ccccc2)c(-c2ccccc2)c(-c2ccc(F)cc2)n1CC[C@@H](O)C[C@@H](O)CC(=O)O` [atorvastatin, reference compound], the “Infarct Volume” value in series [1] (1 mg/kg SC at 2 h pre) turned out to be 158.06 ± 32.83 mm^3. In addition, the “infarct volume compared with controls (significance)” value in series [1] (1 mg/kg SC) is “not significantly different from controls”. The “Infarct Volume” value in series [1] (10 mg/kg SC at 2 h pre) amounted to 124.71 ± 17.31 mm^3. In addition, in series [1] (10 mg/kg SC), the “infarct volume compared with controls (significance)” value was “not significantly different from controls”. In series [2] (setting [4]), the “Forelimb placing test score, D0” value is 0; the “Forelimb placing test score, D1” value is 8.8; the “Forelimb placing test score, D3” value came out at 8.8; the “Forelimb placing test score, D7” value was found to be 8. Besides, in series [2] (setting [5]), the “Forelimb placing test score, D0” value amounted to 0; the “Forelimb placing test score, D1” value is 9.2; the “Forelimb placing test score, D3” value worked out at 7.3; the “Forelimb placing test score, D7” value is given as 5.6. In series [3] (setting [4]), the “Corrected Infarct Volume, Average” value is listed as 271.2 mm^3 and the “Percent Infarct Volume, Average” value was 24.56%. Further, in series [3] (setting [10]), the “Corrected Infarct Volume, individual animals” value is 138.8 mm^3 and 267.1 mm^3 and 232.3 mm^3 and 333 mm^3 and 214.3 mm^3 and 291.6 mm^3 and 338.3 mm^3 and 354.3 mm^3; the “Percent Infarct Volume, individual animals” value is 12.7% and 21.6% and 24.2% and 31% and 25.4% and 29.4% and 25.7% and 26.6%. Moreover, in series [3] (setting [5]), the “Corrected Infarct Volume, Average” value was 207.96 mm^3 and the “Percent Infarct Volume, Average” value was 21%. In series [3] (setting [11]), the “Corrected Infarct Volume, individual animals” value is 208 mm^3 and 303.3 mm^3 and 262.3 mm^3 and 184.8 mm^3 and 243.8 mm^3 and 124 mm^3 and 162.8 mm^3 and 164.5 mm^3 and 218.2 mm^3; the “Percent Infarct Volume, individual animals” value is 18.35% and 28.2% and 31% and 16.2101% and 25.43% and 12.82% and 17.39% and 16.81% and 22.81%.
